Reference: article PMC9693123 (2022)

Key:
[1] = test system: Tel12 (DNA, G4) TAGGGTTAGGGT; experiment: X-ray crystallography; conditions: K+ in channel
[2] = test system: Tel12 (DNA, G4) TAGGGTTAGGGT; experiment: UV melting at 295 nm; conditions: KCl 0.1 M; NaCacodylate 2.5 mM, pH 7.0; ligand 1.75 × 10^-5 M, Tel12 1.87 × 10^-5 M
[3] = test system: Tel23 (DNA, G4) TAGGGTTAGGGTTAGGGTTAGGG; experiment: UV-vis titration, HypSpec2014 fit; conditions: KCl 0.1 M; NaCacodylate 2.5 mM, pH 7.0, 25 °C
[4] = test system: Tel23 (DNA, G4) TAGGGTTAGGGTTAGGGTTAGGG; experiment: UV melting at 295 nm; conditions: KCl 0.1 M; NaCacodylate 2.5 mM, pH 7.0; ligand 1.40 × 10^-5 M, Tel23 1.38 × 10^-5 M
[5] = test system: Tel12 (DNA, G4) TAGGGTTAGGGT; experiment: UV-vis titration, HypSpec2014 fit; conditions: KCl 0.1 M, NaCacodylate 2.5 mM, pH 7.0, 25 °C

SMILES | binding ([1]; 0.1 M NaI in crystallizing solution, 0.05 M NaCacodylate pH 6.5, 35% v/v MPD) | ΔTm [2] | LogK [3] | ΔTm [4] | LogK [5] | binding ([1]; 0.05 M KCacodylate, 0.1 M Li2SO4, pH 6.5, 20% v/v PEG400) | LogK ([5]; 1:1 step, further 1:2 ligand:G4 adduct also fitted)
COc1ccc2c(CCc3ccncc3)c3[n+](cc2c1OC)CCc1cc2c(cc1-3)OCO2 | yes | 9.7 ± 1.8 °C | 4.0 ± 0.3 | 4.1 ± 0.8 °C | 6.1 ± 0.2 |  | 
COc1ccc2c(CCCCCc3ccncc3)c3[n+](cc2c1OC)CCc1cc2c(cc1-3)OCO2 |  | 15.0 ± 1.4 °C | 5.6 ± 0.2 | 5.1 ± 1.1 °C | 7.2 ± 0.2 |  | 
COc1ccc2c(CCCCc3ccncc3)c3[n+](cc2c1OC)CCc1cc2c(cc1-3)OCO2 |  | 8.7 ± 1.5 °C | 5.2 ± 0.2 | 5.9 ± 1.0 °C | 7.0 ± 0.2 | yes | 
COc1ccc2c(Cc3ccncc3)c3[n+](cc2c1OC)CCc1cc2c(cc1-3)OCO2 |  | 14.4 ± 1.5 °C | 4.4 ± 0.2 | 4.1 ± 0.4 °C |  |  | 6.0 ± 0.2
COc1ccc2c(CCCc3ccncc3)c3[n+](cc2c1OC)CCc1cc2c(cc1-3)OCO2 |  | 16.7 ± 1.3 °C | 5.8 ± 0.2 | 2.3 ± 0.6 °C | 6.6 ± 0.2 |  | 
